This note sets out measurements from patent publication US5208364A, “Antibiotic 5-lipoxygenase inhibitors” (Bristol-Myers Squibb Co., priority 1992, dated 1993).

What is called IC50 is the midpoint of a concentration-inhibition curve. A lower IC50 goes with inhibition by little substance.

The target of one series is T1, rat 5-LPO (Rattus norvegicus, UniProt P12527).
T1 construct: produced in a cell-free extract of rat basophilic leukemia cells; endogenous in cells; host or cells: RBL-1 rat basophilic leukemia cells (ATCC CRL 1378), cell-free extract
T1 sequence (P12527 1-673): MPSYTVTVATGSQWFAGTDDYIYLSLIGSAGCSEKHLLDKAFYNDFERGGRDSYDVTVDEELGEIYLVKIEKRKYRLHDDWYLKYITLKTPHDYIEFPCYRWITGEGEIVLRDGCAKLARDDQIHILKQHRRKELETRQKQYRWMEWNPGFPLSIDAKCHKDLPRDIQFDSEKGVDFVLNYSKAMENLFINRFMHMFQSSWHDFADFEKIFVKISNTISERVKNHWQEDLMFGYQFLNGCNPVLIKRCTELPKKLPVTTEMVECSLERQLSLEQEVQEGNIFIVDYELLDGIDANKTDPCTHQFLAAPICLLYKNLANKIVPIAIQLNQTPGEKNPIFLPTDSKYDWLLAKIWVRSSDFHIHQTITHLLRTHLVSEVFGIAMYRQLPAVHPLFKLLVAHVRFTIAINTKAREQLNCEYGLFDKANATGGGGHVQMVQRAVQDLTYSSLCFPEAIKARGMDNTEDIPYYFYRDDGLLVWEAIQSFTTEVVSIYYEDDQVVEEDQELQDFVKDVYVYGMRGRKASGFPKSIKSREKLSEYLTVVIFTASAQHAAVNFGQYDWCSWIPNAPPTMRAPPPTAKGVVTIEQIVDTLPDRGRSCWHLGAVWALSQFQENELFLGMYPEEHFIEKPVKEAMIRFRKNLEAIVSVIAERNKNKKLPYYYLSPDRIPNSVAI
The series can be described thus: 5-LPO inhibitory activity (5-HETE produced in cell-free extract of rat basophilic leukemia RBL-1 cells, HPLC). In kind it is biochemical. The note with it: arachidonic acid substrate, 37° C., 5 minutes. As to the method:
The assay method employed in this manuscript is a slight modification of that published by Hook, Yacobuci, O'Connor, Lee, Kerns, Krishnan, Matson and Hesler in "Identification of the inhibitory activity of carbazomycins B and C against 5-lipoxygenase: a new activity for these compounds", J. Antibiot. (1990) 43, 1347. Rat basophilic leukemia cells […]. They were harvested by centrifugation and washed twice with […] containing I mM EDTA. The cells were resuspended in the same buffer and sonicated. The suspension was centrifuged at 13,000×g to remove cell debris and the supernatant stored at -80° C.
Enzyme assays were conducted by diluting the cell-free extract to the desired specific enzyme activity with phosphate buffer saline (PBS) containing 28.5 mM phosphate, 1 mM ethylenediamine tetraacetic acid (EDTA), 0.9 mM adenosine triphosphate (ATP) and 0.9 mM glutathione. The cell-free extract solution (110 μ1) was preincubated at 37° C. for 2.5 minutes, followed by the addition of the test sample in 20 μl of DMSO-PBS (1:9, v/v). The reaction was started by the addition of 5 μl of substrate (2 mM arachidonic acid plus 25 mM CaC12 in ethanol-water, 3:1). After incubation for 5 minutes, the reaction was terminated by the addition of 135 μl of ethanol and the solution centrifuged to remove precipitated protein. The 5-hydroxyeicosatetraenoic acid (5-HETE) in the supernatant was analyzed by HPLC as described below.
The inhibitory effect of a fermentation broth extract or a purified preparation was determined by measuring the amount of 5-hydroxyeicosatetraenoic acid (5-HETE) produced in a cell-free extract of rat basophilic leukemia cells (RBL-I cells, ATCC CRL 1378) in the presence of a test sample, arachidonic acid, adenosine triphosphate, CaC12 and glutathione. […] The concentration of 5-HETE was spectrophotometrically measured at 230 nm with a Gilson 115 UV detector and a Hewlett Packard 3396 A integrator.

A short description of series [1]: Solubility (physico-chemical properties). In kind it is physicochemical.

Consider `CC(C)CCCCCCCOC(=O)c1cc(O)ccc1N` [IA, Isodecyl 5-hydroxyanthranilate], for which half-maximal inhibition at rat 5-LPO (IC50) was put at 3.4 µM. For the same compound, in series [1], the “solubility in methanol, ethanol, ethyl acetate, chloroform and dimethyl sulfoxide” value (from here on “solubility in methanol, ethanol”) is listed as “soluble”; the solubility in n-hexane entry is reported as “slightly soluble”; the solubility in water entry is “insoluble”.

In turn, `CC(C)CCCCCCCCOC(=O)c1cc(O)ccc1N` [IB, Isoundecyl 5-hydroxyanthranilate] returned an IC50 at rat 5-LPO of 4.9 µM. For the same compound, in series [1], the “solubility in methanol, ethanol” value is “soluble”; the solubility in n-hexane entry is on record as “slightly soluble”; the solubility in water entry was “insoluble”.

`CC(C)CCCCCCCCCOC(=O)c1cc(O)ccc1N` [Compound IC, Isolauryl 5-hydroxyanthranilate]: on rat 5-LPO, the IC50 amounted to 6.3 µM. For the same compound, in series [1], the “solubility in methanol, ethanol” value was “soluble”; the solubility in n-hexane entry was “slightly soluble”; the solubility in water result is “insoluble”.
